From patent US20230348561A1, “DOMINANT NEGATIVE TGFBETA RECEPTOR POLYPEPTIDES, CD8 POLYPEPTIDES, CELLS, COMPOSITIONS, AND METHODS OF USING THEREOF” (IMMATICS US, INC., priority 2022, published 2023)

B1: dnTGFβRIIvar2: dominant negative TGFβRII variant 2, SEQ ID NO: 307, encoded by SEQ ID NO: 308; lentiviral vector SEQ ID NO: 313 (protein)
chain: MGRGLLRGLWPLHIVLWTRIASTIPPHVQKSVNNDMIVTDNNGAVKFPQLCKFCDVRFSTCDNQKSCMSNCSITSICEKPQEVCVAVWRKNDENITLETVCHDPKLPYHDFILEDAASPKCIMKEKKKPGETFFMCSCSSDECNDNIIFSEEYNTSNPDLLLVIFQVTGISLLPPLGVAISVIIIFYCYRVNRQQKLSS
modifications: Dominant Negative TGFbetaRII var2 Amino Acid Sequence
B2: dnTGFβRIIvar1: dominant negative TGFβRII variant 1, SEQ ID NO: 305, encoded by SEQ ID NO: 306; lentiviral vector SEQ ID NO: 312 (protein)
chain: MGRGLLRGLWPLHIVLWTRIASTIPPHVQKSDVEMEAQKDEIICPSCNRTAHPLRHINNDMIVTDNNGAVKFPQLCKFCDVRFSTCDNQKSCMSNCSITSICEKPQEVCVAVWRKNDENITLETVCHDPKLPYHDFILEDAASPKCIMKEKKKPGETFFMCSCSSDECNDNIIFSEEYNTSNPDLLLVIFQVTGISLLPPLGVAISVIIIFYCYRVNRQQKLSS
modifications: Dominant Negative TGFbetaRII var1 Amino Acid Sequence

Assays:
effector T cells = assay: CellTrace proliferation assay of effector T cells co-cultured with UACC257; type: cell-based, human; details: TCR-only effector cells, E:T 5:1; TGF-β1 2-128 ng/mL; GAL 5 μM; 3 days
Protocol: Transduced cells from one donor (prepared as in Example 17) were thawed, washed, and resuspended in TexMACS medium supplemented with 5% by volume human AB serum (“Complete TexMACS”). Benzonase nuclease was added to a concentration of 50 U/mL and the cells were incubated (rested) overnight in tissue culture-treated flasks at 37° C.
UACC257 tumor cells were harvested using 0.05% trypsin, washed, and counted. Red fluorescent protein (RFP)-labeled tumor cells were plated at 5,000 tumor cells per well in 100 μL in triplicate in a 96-well plate in Complete TexMACS. Plates were placed in an incubator at 37° C.
On the day of co-culture, effector T cells were counted, washed, and resuspended in PBS containing a CellTrace Violet proliferation dye at 1:1000 dilution (1 μL dye per mL PBS) and incubated for 20 minutes at 37° C. […]
Labeled effector T cells were then washed, counted, and resuspended in Complete TexMACS and added in 1 mL per well to previously prepared tumor targets for a total of 2 mL per well at an effector:target (E:T) ratio of 5:1. […]
UACC257 tumor cells were harvested using 0.05% trypsin, washed, and counted. […]
On the day of co-culture, cells from two donors prepared and sorted as in Example 19 were counted, washed, and resuspended in PBS containing a CellTrace Violet proliferation dye at 1:1000 dilution (1 μL dye per mL PBS) and incubated for 20 minutes at 37° C. […]

UACC257-RFP tumor cells = assay: Tumor death assays with TGF-β1/galunisertib and serial tumor challenges (IncuCyte); type: cell-based; details: TCR-only effector cells, E:T 5:1; TGF-β1 8 or 128 ng/mL; GAL 5 μM
Protocol: Cells prepared as in Example 17 were thawed, washed, and resuspended in TexMACS medium supplemented with 5% by volume human AB serum (“Complete TexMACS”). Benzonase nuclease was added to a concentration of 50 U/mL and the cells were incubated (rested) overnight in tissue culture-treated flasks at 37° C.
UACC257 tumor cells were harvested using 0.05% trypsin, washed, and counted. Red fluorescent protein (RFP)-labeled tumor cells (“UACC257-RFP”) were plated at 5,000 to 10,000 per well in a flat-bottomed 96-well plate in 100 μL of Complete TexMACS. Plates were placed in an incubator at 37° C. UACC257 cells express high levels of the antigen PRAME (preferentially expressed antigen in melanoma).
Transduced cells (effector) and tumor cells (target) were co-cultured in 96 well tissue culture plates. Effector/target co-culture plates were placed into an IncuCyte ZOOM imager at 37° C. and 5% CO2 and imaged every 2 hours for the duration of 3 to 12 days. Data was exported from the IncuCyte ZOOM software into Microsoft Excel and GraphPad Prism for further analysis. Fold tumor growth (RFP+ cell count) was normalized to 0 hr timepoint.
TCR-only transduced cells from one donor (prepared as in Example 17) were co-cultured with UACC257 tumor cells, as described in Example 20, at an effector:target (E:T) ratio of 5:1. […]

pSMAD2/3 = assay: Phospho-SMAD intracellular staining assay; type: cell-based, human; details: 5 ng/mL TGFβ; vs non-transduced cells
Protocol: SMAD is a signal transducer in the TGFβ signaling pathway. SMAD is phosphorylated in response to binding of TGFβ to its receptor and facilitates expression of TGFβ-responsive genes.
Non-transduced cells and cells expressing dnTGFβvar1 or dnTGFβvar2 (prepared as in Example 17) were thawed and washed in TexMACS medium supplemented with 5% by volume human AB serum (“Complete TexMACS”). They were subsequently resuspended in unsupplemented TexMACS to rest under serum starvation overnight at 37° C. After overnight rest, effector cells were counted and the concentration was adjusted as necessary and 100 μL aliquots were added into a flat-bottomed 96-well tissue culture plate. To avoid stimulating SMAD phosphorylation from the manipulation of cells during counting/plating, cells were further rested about 2 hours in serum-free TexMACS at 37° C.
After 2 hours, 50 μL of a 3× solution of TGF-β1 (15 ng/mL) and/or GAL (15 μM) was added to the plated effector cells for final 1× concentrations of 5 ng/mL TGF-β1 and/or 5 μM GAL, respectively. For untreated cells, 50 μL of untreated medium was added. […]
Following permeabilization, cells were washed twice with Flow Buffer (PBS, 1% FBS, 0.1% sodium azide). […] Cytometry data files were analyzed in FlowJo. pSMAD+ percentages were reported as a proportion of all live lymphocytes. […]

| Molecule | Division Index / proliferation of effector T cells (effector T cells) | tumor fold growth of UACC257-RFP cells (UACC257-RFP tumor cells) | percentage of all lymphocytes positive for pSMAD (pSMAD2/3) |
| --- | --- | --- | --- |
| Cc1cccc(-c2nn3c(c2-c2ccnc4ccc(C(N)=O)cc24)CCC3)n1 [GAL, Galunisertib] | rescued | rescues or enhances ability of effector cells to kill tumor cells |  |
| TGF-β1: exogenous cytokine added to co-cultures | suppresses proliferation of effector T cells | reduced the anti-tumor cytotoxicity of the effector cells |  |
| B1 |  |  | reduced phosphorylated SMAD |
| B2 |  |  | reduced phosphorylated SMAD |
